Test results: paper PMC8436411 (ACS Medicinal Chemistry Letters, 2021)
In brackets after ≈: the same amount, converted by molar mass. Several values for one entry are separate records, joined by “and”; a condition that tells them apart may be missing. Equal values may be shown once. Read-outs that look alike come from different tables or passages of the source.

How the values were obtained:
S. aureus DNA gyrase = target: T1, S. aureus DNA gyrase (Staphylococcus aureus, UniProt P20831); assay: DNA gyrase supercoiling inhibition assay (S. aureus); type: biochemical; conditions: mean of two independent measurements ± SD
T1 construct: purchased Inspiralis (Norwich, UK)
Protocol: We synthesized and biologically evaluated ten new compounds. We determined their inhibitory activity, expressed as IC50 values, on both Gram-positive S. aureus and Gram-negative E. coli bacterial enzymes (DNA gyrase and topo IV), respectively. The in vitro antibacterial activity, expressed as minimum inhibitory concentration (MIC), was determined against broad spectrum of bacteria, including Gram-positive (Staphylococcus aureus, methicillin-resistant Staphylococcus aureus, Streptococcus agalactiae, and Enterococcus faecalis) and Gram-negative strains (Escherichia coli, Salmonella alachua, Pseudomonas aeruginosa, and Klebsiella pneumoniae), enriched with various MRSA strains resistant to various antibiotics as well as E. coli strains with increased membrane permeability and lack of efflux pump, as well. Furthermore, the selectivity of compounds for bacterial enzyme compared to the orthologous human topoisomerase IIα was also considered. The in vitro safety profile was determined by cytotoxicity assessment on human umbilical vein endothelial cell lines (HUVEC) and HepG2 liver cancer cell lines.
Determination of DNA gyrase and topoisomerase IV inhibitory activities
To determine the IC50 values of the compounds, a Gyrase Supercoiling High Throughput Plate assay kit and a TopoIV Relaxation High Throughput Plate assay kit, commercially available from Inspiralis (Norwich, UK), were used for S. aureus and E. coli. The assays were performed on black streptavidin-coated 96-well microtiter plates (Thermo Scientific Pierce, Norwich, UK) and the wells were first […]
BSA and 0.05% [v/v] Tween-20). Biotinylated oligonucleotide diluted with the wash buffer was then immobilized in each well and the excess was removed with the wash buffer. 1.5 U of the enzyme S. aureus or E. coli DNA gyrase (topoIV) was incubated together with 0.75 μg of relaxed (supercoiled) pNO1 plasmid as substrate in the presence of 3 μl inhibitor solution in 10% DMSO and 0.008% Tween-20 at 37°C for 30 min in a final reaction volume of 30 μl in the assay buffer (S. aureus DNA gyrase: 40 mM HEPES.KOH (pH 7.6), 10 mM magnesium acetate, 10 mM DTT, 2 mM ATP, 500 mM potassium glutamate and 0.05 mg/ml albumin; E. coli DNA gyrase: 35 mM Tris.HCl (pH 7.5), 24 […]
mg/ml albumin; S. aureus topo IV: 50 mM Tris.HCl (7.5), 5 mM MgCl 2, 5 mM DTT, 1.5 mM ATP, 350 mM potassium glutamate and 0.05 mg/ml albumin; E. coli topo IV: 40 mM HEPES.KOH (pH 7.6), 100 mM potassium glutamate, 10 mM magnesium acetate, 10 mM DTT, 1 mM ATP and 50 μg/ml albumin). The reaction was stopped by adding the TF buffer (50 mM NaOAc (pH 4.7), 50 mM NaCl and 50 mM MgCl2) to allow triplex formation (biotin oligonucleotide plasmid) for another 30 min. Finally, the unbound plasmid was washed off using the TF buffer and the Promega Diamond dye was added to T10 buffer (10 mM Tris-HCl (pH 8.0), 1 mM EDTA) solution. After 15 min the solution […]
Two inhibitor concentrations of 100 and 1 μM were used for pre-screening. The IC 50 values […]
(IC50) was calculated by nonlinear regression-based fitting of the inhibition curves using the log [inhibitor] versus response-variable slope (four parameters) – symmetrical equation, in GraphPad Prism 6.0 software (GraphPad Software, CA, USA). The IC50 value represents the average of two independent measurements.
The minimum inhibitory concentrations (MICs) were determined using the broth micro-dilution method in 96-well plate format according to the Clinical and Laboratory Standards Institute

Human topoisomerase IIα = Human topoisomerase IIα (Homo sapiens, UniProt P11388); assay: Human topoisomerase IIα residual activity; type: biochemical; conditions: residual activity at 10 μM compound; mean ± SD, two independent experiments; read-out: Human topoisomerase IIα (%RA)
E. coli D22 = assay: microbe, parasite or virus in culture; conditions: Escherichia coli
Protocol: (§1) The in vitro antibacterial activity, expressed as minimum inhibitory concentration (MIC), was determined against broad spectrum of bacteria, including Gram-positive (Staphylococcus aureus, methicillin-resistant Staphylococcus aureus, Streptococcus agalactiae, and Enterococcus faecalis) and Gram-negative strains (Escherichia coli, Salmonella alachua, Pseudomonas aeruginosa, and Klebsiella pneumoniae), enriched with various MRSA strains resistant to various antibiotics as well as E. coli strains with increased membrane permeability and lack of efflux pump, as well. […]
(§2) The minimum inhibitory concentrations (MICs) were determined using the broth micro-dilution method in 96-well plate format according to the Clinical and Laboratory Standards Institute […]
(§3) guidelines8 and European Committee on Antimicrobial Susceptibility Testing recommendations9. The bacterial suspension of the specific bacterial strain equivalent to the 0.5 McFarland turbidity standard was diluted with cation-adapted Mueller Hinton broth with TES (Thermo Fisher Scientific) to obtain a […]
(§4) The compounds dissolved in DMSO and inoculum were mixed together and incubated for 20 h at 35 °C.

E. coli (ATCC 25922) = assay: microbe, parasite or virus in culture; conditions: Escherichia coli, ATCC25922, read-out: MIC E. coli (ATCC 25922)
Protocol: as §1, §2, §3, §4

MRSA (QA-12.1) = assay: microbe, parasite or virus in culture; conditions: Staphylococcus aureus, read-out: MIC MRSA (QA-12.1)
Protocol: as §1, §2, §3, §4

[1] = system: E. coli N43 (CGSC no. 5583); assay: microbe, parasite or virus in culture; conditions: Escherichia coli
Protocol: as §1, §2, §3, §4

[2] = system: Salmonella alachua RDK 030c (QA-1482/04); assay: microbe, parasite or virus in culture
Protocol: as §1, §2, §3, §4

Klebsiella pneumoniae = assay: microbe, parasite or virus in culture
Protocol: as §1, §2, §3, §4

[3] = system: Pseudomonas aeruginosa RDK 184 (DSM 939); assay: microbe, parasite or virus in culture
Protocol: as §1, §2, §3, §4

S. aureus (ATCC 29213) = assay: microbe, parasite or virus in culture; conditions: Staphylococcus aureus, ATCC29213, read-out: MIC S. aureus (ATCC 29213)
Protocol: as §1, §2, §3, §4

[4] = system: Enterococcus faecalis DRK 057 (ATCC 29212); assay: microbe, parasite or virus in culture
Protocol: as §1, §2, §3, §4

MRSA (QA-11.7) = assay: microbe, parasite or virus in culture; conditions: Staphylococcus aureus, read-out: MIC MRSA (QA-11.7)
Protocol: as §1, §2, §3, §4

[5] = system: Streptococcus agalactiae RDK 047 (QA-990/02); assay: microbe, parasite or virus in culture
Protocol: as §1, §2, §3, §4

[6] = read-out: MIC E. coli N43 (CGSC no. 5583)
[7] = read-out: MIC E. coli N43 (CGSC# 5583)
[8] = read-out: MIC S. alachua RDK 030c (QA-1482/04)
[9] = read-out: MIC Salmonella alachua RDK 030c (QA-1482/04)
[10] = read-out: MIC Klebsiella pneumoniae
[11] = DSM939, read-out: MIC P. aeruginosa RDK 184 (DSM 939)
[12] = DSM939, read-out: MIC Pseudomonas aeruginosa RDK 184 (DSM 939)
[13] = ATCC29212, read-out: MIC E. faecalis DRK 057 (ATCC 29212)
[14] = ATCC29212, read-out: MIC Enterococcus faecalis DRK 057 (ATCC 29212)
[15] = read-out: MIC S. agalactiae RDK 047 (QA-990/02)
[16] = read-out: MIC Streptococcus agalactiae RDK 047 (QA-990/02)

Human topoisomerase IIα, sequence (P11388 whole entry): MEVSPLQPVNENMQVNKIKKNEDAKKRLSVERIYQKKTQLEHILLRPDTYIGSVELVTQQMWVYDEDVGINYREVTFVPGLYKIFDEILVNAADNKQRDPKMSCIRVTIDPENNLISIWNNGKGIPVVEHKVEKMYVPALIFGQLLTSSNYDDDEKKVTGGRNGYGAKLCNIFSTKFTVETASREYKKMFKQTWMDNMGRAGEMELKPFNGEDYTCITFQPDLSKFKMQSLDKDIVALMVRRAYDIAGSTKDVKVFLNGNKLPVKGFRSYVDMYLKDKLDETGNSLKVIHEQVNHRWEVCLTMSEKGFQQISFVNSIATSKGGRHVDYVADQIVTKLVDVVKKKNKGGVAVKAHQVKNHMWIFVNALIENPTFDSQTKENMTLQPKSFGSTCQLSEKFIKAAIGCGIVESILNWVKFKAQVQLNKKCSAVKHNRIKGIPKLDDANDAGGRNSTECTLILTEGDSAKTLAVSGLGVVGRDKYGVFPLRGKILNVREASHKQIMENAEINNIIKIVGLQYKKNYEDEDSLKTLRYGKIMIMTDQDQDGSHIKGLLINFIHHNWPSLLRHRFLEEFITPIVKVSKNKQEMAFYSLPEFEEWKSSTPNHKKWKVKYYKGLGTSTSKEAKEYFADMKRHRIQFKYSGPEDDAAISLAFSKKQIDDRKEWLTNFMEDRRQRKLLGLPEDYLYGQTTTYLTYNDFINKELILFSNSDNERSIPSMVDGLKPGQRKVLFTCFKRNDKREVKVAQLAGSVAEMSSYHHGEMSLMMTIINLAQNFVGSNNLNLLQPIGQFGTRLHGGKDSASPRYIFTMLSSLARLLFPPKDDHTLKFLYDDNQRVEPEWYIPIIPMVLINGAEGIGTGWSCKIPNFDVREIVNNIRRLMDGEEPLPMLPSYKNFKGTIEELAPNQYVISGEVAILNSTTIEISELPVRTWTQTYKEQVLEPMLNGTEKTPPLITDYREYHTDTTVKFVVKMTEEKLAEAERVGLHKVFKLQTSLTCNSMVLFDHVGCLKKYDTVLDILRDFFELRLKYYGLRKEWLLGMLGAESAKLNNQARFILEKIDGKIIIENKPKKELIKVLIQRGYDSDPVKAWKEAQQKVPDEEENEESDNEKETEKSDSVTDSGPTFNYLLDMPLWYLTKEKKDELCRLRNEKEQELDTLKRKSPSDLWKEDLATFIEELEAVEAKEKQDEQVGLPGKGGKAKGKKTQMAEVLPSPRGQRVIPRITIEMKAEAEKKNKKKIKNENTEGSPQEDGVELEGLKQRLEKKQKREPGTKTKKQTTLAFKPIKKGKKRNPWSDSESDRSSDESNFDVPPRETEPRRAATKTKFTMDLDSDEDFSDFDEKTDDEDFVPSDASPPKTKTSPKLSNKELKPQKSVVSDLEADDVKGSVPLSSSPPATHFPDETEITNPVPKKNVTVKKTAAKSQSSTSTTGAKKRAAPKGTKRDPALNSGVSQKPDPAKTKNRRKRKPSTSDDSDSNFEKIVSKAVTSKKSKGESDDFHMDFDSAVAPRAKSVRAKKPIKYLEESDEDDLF
T1 sequence (P20831 whole entry, looked up): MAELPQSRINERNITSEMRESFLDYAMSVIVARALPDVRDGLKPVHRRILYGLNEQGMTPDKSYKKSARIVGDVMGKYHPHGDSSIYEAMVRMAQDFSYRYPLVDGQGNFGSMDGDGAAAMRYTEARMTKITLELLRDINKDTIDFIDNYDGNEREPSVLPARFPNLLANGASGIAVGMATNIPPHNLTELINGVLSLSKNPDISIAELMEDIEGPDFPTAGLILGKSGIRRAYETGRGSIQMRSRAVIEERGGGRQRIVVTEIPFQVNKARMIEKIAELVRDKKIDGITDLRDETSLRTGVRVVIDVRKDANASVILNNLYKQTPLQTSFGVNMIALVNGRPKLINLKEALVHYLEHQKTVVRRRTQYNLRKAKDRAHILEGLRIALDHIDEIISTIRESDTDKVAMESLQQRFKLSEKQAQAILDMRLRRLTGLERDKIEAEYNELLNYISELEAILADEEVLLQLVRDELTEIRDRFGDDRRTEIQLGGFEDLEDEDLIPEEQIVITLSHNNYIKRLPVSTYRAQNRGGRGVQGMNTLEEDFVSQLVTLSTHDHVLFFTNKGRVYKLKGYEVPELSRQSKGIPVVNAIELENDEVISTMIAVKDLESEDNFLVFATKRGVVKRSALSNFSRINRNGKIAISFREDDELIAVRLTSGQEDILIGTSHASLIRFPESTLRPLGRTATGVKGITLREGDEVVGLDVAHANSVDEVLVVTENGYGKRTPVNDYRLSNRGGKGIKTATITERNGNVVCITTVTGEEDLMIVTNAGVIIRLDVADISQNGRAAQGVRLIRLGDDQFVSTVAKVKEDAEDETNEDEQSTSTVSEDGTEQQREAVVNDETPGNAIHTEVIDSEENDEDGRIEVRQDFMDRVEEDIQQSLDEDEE

| SMILES | IC50 (S. aureus DNA gyrase) | remaining activity at 10 µM (Human topoisomerase IIα) | MIC (E. coli D22; D22, read-out: MIC E. coli D2) | MIC (E. coli D22; D22, read-out: MIC E. coli D22) | MIC (E. coli (ATCC 25922)) | MIC (MRSA (QA-12.1)) | MIC [1, 6] | MIC [1, 7] | MIC [2, 8] | MIC [2, 9] | MIC (Klebsiella pneumoniae; read-out: MIC K. pneumoniae) | MIC (Klebsiella pneumoniae; [10]) | MIC [3, 11] | MIC [3, 12] | MIC (S. aureus (ATCC 29213)) | MIC [4, 13] | MIC [4, 14] | MIC (MRSA (QA-11.7)) | MIC [5, 15] | MIC [5, 16] |
| --- | --- | --- | --- | --- | --- | --- | --- | --- | --- | --- | --- | --- | --- | --- | --- | --- | --- | --- | --- | --- |
| COc1ccc2nccc(CCN3CCC(NCc4ccc(Cl)nc4)CC3)c2n1 [Compound 12] | 283 ± 9 nM | 99.7 ± 1.48% | 9.71 µM | 4 µg/mL | 77.7 µM and 32 µg/mL | 4.86 µM and 2 µg/mL | 8 µg/mL | 19.4 µM | > 311 µM | > 128 µg/mL | > 311 µM | > 128 µg/mL | > 311 µM | > 128 µg/mL | 2.43 µM and 1 µg/mL | 77.7 µM | 32 µg/mL | 2.43 µM and 1 µg/mL | 155 µM | 64 µg/mL |
| COc1ccc2nccc(CCN3CCC(NCc4cc(F)c(Br)cc4F)CC3)c2n1 [Compound 9] | 9 ± 1 nM | 98.83 ± 0.11% | 0.509 µM | 0.25 µg/mL | 2.04 µM and 1 µg/mL | 0.033 µM and 0.016 µg/mL | 0.062 µg/mL | 0.126 µM | 32.6 µM | 16 µg/mL | 130 µM | 64 µg/mL | 260 µM | 128 µg/mL | 0.016 µM and 0.008 µg/mL | 1.02 µM | 0.5 µg/mL | 0.033 µM and 0.016 µg/mL | 0.509 µM | 0.25 µg/mL |
| COc1ccc2nccc(CCN3CCC(NCc4cc(F)c(Cl)c(F)c4)CC3)c2n1 [Compound 7] | 14 ± 2 nM | 99.43 ± 0.57% | 0.069 µM | 0.031 µg/mL | 1.12 µM and 0.5 µg/mL | 0.069 µM and 0.031 µg/mL | 0.062 µg/mL | 0.139 µM | 4.47 µM | 2 µg/mL | 17.9 µM | 8 µg/mL | 35.8 µM | 16 µg/mL | 0.018 µM and 0.008 µg/mL | 1.12 µM | 0.5 µg/mL | 0.069 µM and 0.031 µg/mL | 1.12 µM | 0.5 µg/mL |
| COc1ccc2nccc(CCN3CCC(NCc4ccc(Br)c(F)c4)CC3)c2n1 [Compound 5] | 7 nM | 98.46 ± 0.45% | 0.131 µM | 0.062 µg/mL | 2.11 µM and 1 µg/mL | 0.065 µM and 0.031 µg/mL | 0.031 µg/mL | 0.065 µM | 8.45 µM | 4 µg/mL | 33.8 µM | 16 µg/mL | 67.6 µM | 32 µg/mL | 0.017 µM and 0.008 µg/mL | 1.06 µM | 0.5 µg/mL | 0.034 µM and 0.016 µg/mL | 4.22 µM | 2 µg/mL |
| COc1ccc2nccc(CCN3CCC(NCc4ccc(Cl)c(F)c4)CC3)c2n1 [Compound 4] | 6 ± 1 nM | 99.2 ± 0.52% | 0.583 µM | 0.25 µg/mL | 4.66 µM and 2 µg/mL | 0.072 µM and 0.031 µg/mL | 0.062 µg/mL | 0.145 µM | 18.7 µM | 8 µg/mL | 74.6 µM | 32 µg/mL | 149 µM | 64 µg/mL | 0.072 µM and 0.031 µg/mL | 4.66 µM | 2 µg/mL | 0.072 µM and 0.031 µg/mL | 2.33 µM | 1 µg/mL |
| COc1ccc2nccc(CCN3CCC(NCc4ccc(I)c(F)c4F)CC3)c2n1 [Compound 11] | 9 ± 1 nM | 94.9 ± 5.67% | 0.23 µM | 0.125 µg/mL | 3.71 µM and 2 µg/mL | 0.115 µM and 0.062 µg/mL | 0.031 µg/mL | 0.058 µM | 14.9 µM | 8 µg/mL | 59.4 µM | 32 µg/mL | 119 µM | 64 µg/mL | 0.015 µM and 0.008 µg/mL | 0.929 µM | 0.5 µg/mL | 0.058 µM and 0.031 µg/mL | 0.929 µM | 0.5 µg/mL |
| O=c1ccc2ncc(=O)n3c2n1C[C@H]3CN1CCC(NCc2cc3c(cn2)OCCC3)CC1 [Gepotidacin, gepotidacin, reference compound] |  |  | 0.279 µM |  | 2.23 µM and 1 µg/mL | 0.279 µM and 0.125 µg/mL | 0.016 µg/mL | 0.036 µM | 8.92 µM | 4 µg/mL | 17.8 µM | 8 µg/mL | 17.8 µM | 8 µg/mL | 0.279 µM (≈ 0.125 µg/mL) |  |  | 0.138 µM and 0.062 µg/mL |  |  |
| COc1ccc2nccc(CCN3CCC(NCc4ccc(Cl)cn4)CC3)c2n1 [Compound 13] | 123 ± 19 nM | 99.36 ± 0.34% | 38.8 µM | 16 µg/mL | 77.7 µM and 32 µg/mL | 0.607 µM and 0.25 µg/mL | 8 µg/mL | 19.4 µM | > 311 µM | > 128 µg/mL | > 311 µM | > 128 µg/mL | > 311 µM | > 128 µg/mL | 0.303 µM and 0.125 µg/mL | 9.71 µM | 4 µg/mL | 0.607 µM and 0.25 µg/mL | 19.4 µM | 8 µg/mL |
